Experimental data reported in ChEMBL document CHEMBL4028847, “Perspectives of Cannabinoid Type 2 Receptor (CB2R) Ligands in Neurodegenerative Disorders: Structure-Affinity Relationship (SAfiR) and Structure-Activity Relationship (SAR) Studies” (J Med Chem, 2017).

How the values were obtained:
[1] = target: T1, Cannabinoid receptor 1 (Homo sapiens, UniProt P21554); test: Agonist activity at human CB1 receptor expressed in mouse AtT-20 cells co expressing GIRK by FLIPR assay; assay type: cell-based
[2] = target: T2, Cannabinoid receptor 2 (Homo sapiens, UniProt P34972); test: Agonist activity at human CB2 receptor expressed in mouse AtT-20 cells co expressing GIRK by FLIPR assay; assay type: cell-based
[3] = species: Homo sapiens; test: Selectivity index, ratio of EC50 for human CB1 receptor to Ki for human CB2 receptor
[4] = target: T2, Cannabinoid receptor 2; test: Inhibition of CB2 receptor (unknown origin)
[5] = species: Homo sapiens; test: Selectivity index, ratio of Ki for CB1 receptor (unknown origin) to Ki for CB2 receptor (unknown origin)
[6] = target: T2, Cannabinoid receptor 2; test: Activity at CB2 receptor (unknown origin)
[7] = target: T1, Cannabinoid receptor 1; test: Binding affinity to CB1 receptor (unknown origin)
[8] = target: T2, Cannabinoid receptor 2; test: Binding affinity to CB2 receptor (unknown origin)

T2 sequence (P34972 whole entry): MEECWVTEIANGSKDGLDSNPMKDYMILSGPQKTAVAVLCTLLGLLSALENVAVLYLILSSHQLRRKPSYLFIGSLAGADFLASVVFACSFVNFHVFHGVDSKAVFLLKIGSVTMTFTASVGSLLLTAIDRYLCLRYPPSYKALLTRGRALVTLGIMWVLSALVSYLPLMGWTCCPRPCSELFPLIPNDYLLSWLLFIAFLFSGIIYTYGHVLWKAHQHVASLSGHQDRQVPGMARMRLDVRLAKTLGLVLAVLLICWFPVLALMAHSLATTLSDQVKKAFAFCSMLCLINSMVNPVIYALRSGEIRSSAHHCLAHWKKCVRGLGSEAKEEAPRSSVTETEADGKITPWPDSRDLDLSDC
T1 sequence (P21554 whole entry): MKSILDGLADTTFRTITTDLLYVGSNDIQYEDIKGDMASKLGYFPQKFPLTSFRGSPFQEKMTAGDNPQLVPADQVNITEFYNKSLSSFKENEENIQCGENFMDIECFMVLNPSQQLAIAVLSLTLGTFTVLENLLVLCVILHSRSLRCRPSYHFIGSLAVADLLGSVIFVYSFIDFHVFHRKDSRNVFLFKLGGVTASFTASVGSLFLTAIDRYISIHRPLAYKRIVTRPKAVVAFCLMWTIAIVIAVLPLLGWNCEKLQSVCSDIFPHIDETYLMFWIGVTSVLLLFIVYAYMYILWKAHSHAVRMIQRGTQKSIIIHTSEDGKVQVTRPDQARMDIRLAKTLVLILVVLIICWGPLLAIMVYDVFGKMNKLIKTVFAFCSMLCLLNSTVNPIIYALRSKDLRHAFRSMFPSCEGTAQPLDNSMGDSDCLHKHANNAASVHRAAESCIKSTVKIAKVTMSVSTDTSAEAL

SMILES: CCCCn1cc(C(=O)c2ccccc2OC)c2ccccc21
- EC50 [1]: 178 nM
- EC50 [2]: 4.5 nM
- Selectivity Index [3]: 39.6

SMILES: CC(C)[C@H](NC(=O)c1nn(CC2CCCCC2)c2ccccc12)C(N)=O
- EC50 [1]: 2.1 to 7.8 nM
- Ratio EC50 [3]: 1.5 to 3.2

SMILES: [2H]C([2H])([18F])Oc1nc(NCCc2ccc(F)cc2)nc(-c2ccc(Cl)c(C(C)(C)O)c2)n1
- IC50 [4]: 1.4 nM

SMILES: COc1cccc2c(=O)c(C(=O)NC34CC5CC(CC(C5)C3)C4)cn(CCOCCF)c12
- Ratio Ki ([5]; tested as the 18F-labelled form): > 8330

SMILES: CCCCCn1nc(C(=O)N[C@H](C(N)=O)C(C)C)c2ccccc21
- EC50 [1]: 2.1 to 7.8 nM
- Ratio EC50 [3]: 1.5 to 3.2

SMILES: CCOc1nc(NC2CCCC2)nc(N2CCN(CC[18F])CC2)n1
- EC50 [6]: 40 nM

SMILES: CCCc1sc(NC(=O)C23CC4CC(CC(C4)C2)C3)c(C(=O)O[11CH3])c1C
- Ki [7]: 1100 nM
- Ki [8]: 4.3 nM

SMILES: CCCc1sc(NC(=O)C23CC4CC(CC(C4)C2)C3)c(C(=O)OC)c1C
- Ratio Ki ([5]; tested as the 11C-labelled form): 256

SMILES: CCCCCn1cc(C(=O)c2ccccc2OC)c2ccccc21
- EC50 [1]: 54 nM
- EC50 [2]: 6.9 nM
- Selectivity Index [3]: 7.8

SMILES: CCOCCn1cc(C(=O)NC23CC4CC(CC(C4)C2)C3)c(=O)c2cccc(O[11CH3])c21
- Ki [7]: > 10000 nM

SMILES: CC(C)[C@H](NC(=O)c1nn(Cc2ccc(F)cc2)c2ccccc12)C(N)=O
- EC50 [1]: 2.1 to 7.8 nM

SMILES: COc1cccc2c(=O)c(C(=O)NC34CC5CC(CC(C5)C3)C4)cn(CCOCC[18F])c12
- Ki [7]: > 10000 nM
- Ki [8]: 1.2 nM

SMILES: CC(C)[C@H](NC(=O)c1nn(CCCCCF)c2ccccc12)C(N)=O
- EC50 [1]: 2.1 to 7.8 nM
- Ratio EC50 [3]: 1.5 to 3.2
